Consider six compounds from article PMC11337205, “Unraveling Interspecies Differences in the Phase I Hepatic Metabolism of Alternariol and Alternariol Monomethyl Ether: Closing Data Gaps for a Comprehensive Risk Assessment” (Chemical Research in Toxicology, 2024).

As usually defined, the Km is the concentration of substrate that gives half-maximal velocity.

Series [1] is described as follows: Pattern of oxidative metabolites in porcine LMs by HR-MS. The series is classed as in vitro ADME, pig. As to conditions: for Relative peak area of oxidative metabolite: porcine LMs, normalized to the sum of measured peak areas. The protocol:
(§1) The kinetics of the phase I metabolism of AOH and AME was investigated by incubating human, rat (both 1 mg protein/mL), and porcine LMs (2 mg protein/mL) with 1, 10, 20, 50, and 100 μM AOH or 1, 10, 20, and 50 μM AME based on the protocol by Al-Subeihi et al.[34] The incubation solution contained a final concentration of 3 mM NADPH and 1 mM ascorbic acid in 200 mM Tris–HCl (pH 7.4). After preincubation (37 °C, 1 min, mixing at 250–300 rpm), the toxin stock was added in a 1:100 dilution, resulting in a total DMSO content of 1% and the desired toxin concentration. DMSO was selected for this assay because it is the least inhibitory of the solvents studied by Busby et al. on CYP1A1,[35] the primary enzyme involved in the hydroxylation of AOH and AME.[26] The well-established solubility of the test compounds in DMSO and DMSO-containing aqueous buffers facilitated laboratory work and ensured consistency with existing literature, thereby improving the comparability of results across studies, including those of Pfeiffer and colleagues.[25] In a preliminary investigation, incubation times of 5 and 10 min were chosen because they fall within the linear range of the transformation rate–time relationship, thereby ensuring initial rate conditions (Figure S1). When the selected incubation time (0–10 min) passed, one part of the sample was pipetted into two parts of ice-cold extraction solvent (acetonitrile–methanol, 1:1, v/v) for reaction termination. Subsequently, the samples were placed into the freezer (−20 °C) for at least an hour, centrifuged (15 min, 18,000g, 4 °C), and further diluted in methanol–water (3:7, v/v) prior to LC–MS measurements. In the solvent control, the toxin was substituted with DMSO in the incubation solution. Control incubations were performed without the cofactor NADPH or with heat-inactivated microsomes (98 °C, 10 min, mixing at 300 rpm).
Pooled high-resolution MS (HR-MS) samples were analyzed on a Vanquish UHPLC system (Thermo Fisher Scientific, Waltham, MA, USA) connected to a dual-pressure linear trap-quadrupole Orbitrap mass analyzer (Velos ETD, Thermo Fisher Scientific, Waltham, MA, USA). The heated ESI interface (source heater temperature: 400 °C) was operated in both positive and negative modes. The mobile and stationary phases were the same as those for the targeted analysis. The column compartment temperature was kept at 40 °C. A multistep gradient was applied at a flow rate of 0.4 mL/min and started with rinsing the column for 1 min at 10% eluent B. Then, the organic content was linearly raised to 100% until the 11th minute. Subsequently, the column was purged with 100% eluent B for two additional minutes. Finally, the initial eluent composition was reset between minutes 13 and 13.5, followed by a 2 min re-equilibration under these conditions, resulting in a total run time of 15.5 min. Data acquisition and evaluation were performed with the software Skyline (v. 21.1.0.146, MacCoss Lab, Department of Genome Sciences, University of Washington, Seattle, WA, USA), XCalibur (v. 2.2SP1.48), and Chromeleon (v. 7.2.6.; both Thermo Fisher Scientific, Waltham, MA, USA).
As no analytical standards are currently available for the hydroxy (OH) metabolites of AOH and AME, an Alternaria reference mixture containing 4-OH-AOH and 4-OH-AME was used to enable associating peaks with their respective phase I metabolites.

Series [2] in a line: Pattern of oxidative metabolites in human LMs by HR-MS. The series is classed as in vitro ADME. The following applies: human LMs incubated with AME. The protocol: as §1
Pooled high-resolution MS (HR-MS) samples were analyzed on a Vanquish UHPLC system (Thermo Fisher Scientific, Waltham, MA, USA) connected to a dual-pressure linear trap-quadrupole Orbitrap mass analyzer (Velos ETD, Thermo Fisher Scientific, Waltham, MA, USA). The heated ESI interface (source heater temperature: 400 °C) was operated in both positive and negative modes. The mobile and stationary phases were the same as those for the targeted analysis. The column compartment temperature was kept at 40 °C. A multistep gradient was applied at a flow rate of 0.4 mL/min and started with rinsing the column for 1 min at 10% eluent B. Then, the organic content was linearly raised to 100% until the 11th minute. Subsequently, the column was purged with 100% eluent B for two additional minutes. […]

The subject of the next series is esophageal cells. On the set-up: method as in PMID 27422292. The following applies: cited from earlier work.
Series [3] in a line: Pattern of oxidative metabolites in rat LMs by HR-MS. The series is classed as in vitro ADME, Sprague–Dawley rat. As to conditions: rat LMs incubated with AME. As for the experimental part:
The kinetics of the phase I metabolism of AOH and AME was investigated by incubating human, rat (both 1 mg protein/mL), and porcine LMs (2 mg protein/mL) with 1, 10, 20, 50, and 100 μM AOH or 1, 10, 20, and 50 μM AME based on the protocol by Al-Subeihi et al.[34] The incubation solution contained a final concentration of 3 mM NADPH and 1 mM ascorbic acid in 200 mM Tris–HCl (pH 7.4). After preincubation (37 °C, 1 min, mixing at 250–300 rpm), the toxin stock was added in a 1:100 dilution, resulting in a total DMSO content of 1% and the desired toxin concentration. DMSO was selected for this assay because it is the least inhibitory of the solvents studied by Busby et al. on CYP1A1,[35] the primary enzyme involved in the hydroxylation of AOH and AME.[26] The well-established solubility of the test compounds in DMSO and DMSO-containing aqueous buffers facilitated laboratory work and ensured consistency with existing literature, thereby improving the comparability of results across studies, including those of Pfeiffer and colleagues.[25] […]
Pooled high-resolution MS (HR-MS) samples were analyzed on a Vanquish UHPLC system (Thermo Fisher Scientific, Waltham, MA, USA) connected to a dual-pressure linear trap-quadrupole Orbitrap mass analyzer (Velos ETD, Thermo Fisher Scientific, Waltham, MA, USA). […]

The conditions of series [4]: Caco-2 cell monolayers; cited from earlier work.
A short description of series [5]: Phase I metabolism kinetics (parent toxin loss) in NADPH-fortified porcine liver microsomes, LC-MS/MS. The series is classed as in vitro ADME, pig. As to conditions: for microsomal CLint: female, Large White, pig, liver microsomes, pH 7.4, porcine LMs, read-out: CLint (intrinsic clearance); for Concentration decrease: porcine LMs. The protocol: (§2) Pooled human LMs and pooled Sprague–Dawley rat hepatic microsomes, both originating from male donors, were purchased from Sigma-Aldrich (St. Louis, MO, USA) and Gibco, Thermo Fisher Scientific (Waltham, MA, USA), respectively. Porcine LMs were prepared according to an in-house-developed protocol based on the publication of Knights et al.[32] The liver of an approximately four-month-old female “Large White” (or “German Edelschwein”) pig was obtained from a local slaughterhouse. After slaughtering, the liver was placed on ice for about an hour, kept in ice-cold 50 mM tris(hydroxymethyl)aminomethane hydrochloride (Tris–HCl) (pH 7.4) for an additional hour while being transported, and processed immediately.
as §1
(§3) The quantification of selected analytes using external calibration (MS parameters listed in Supporting Information Table S1) was conducted on a high-performance liquid chromatographic system (Dionex UltiMate 3000 UHPLC, Dionex Softron GmbH, Germering, Germany) coupled to a triple quadrupole mass spectrometer (TSQ Vantage, Thermo Fisher Scientific, Waltham, MA, USA), equipped with a heated electrospray ionization (ESI) interface. The applied analytical method is based on Puntscher et al.[28],[36] with slight modifications, which are specified below.
(§4) In brief, the Ascentis Express C18 column (10 cm × 2.1 mm, 2.7 μm, Supelco, Munich, DE), equipped with the Phenomenex SecurityGuard (C18 Cartridges, 4 × 2.0 mm ID, Phenomenex Ltd. Deutschland, Aschaffenburg, Germany), served as the stationary phase. Eluent A was aqueous ammonium acetate (5 mM, pH adjusted to 8.6 with a 25% ammonia solution), and eluent B was methanol. During the first minute, the column was kept at 30% eluent B. Subsequently, the eluent B content was linearly raised to 100% within 6 min. Thereafter, the column was washed with 100% eluent B for 1.5 min. Lastly, the column was re-equilibrated at the initial conditions, reaching an overall run time of 10 min. The autosampler compartment was kept at 10 °C, while the column oven temperature was maintained at 30 °C. […]
(Liver microsomes are vesicles of endoplasmic reticulum, rich in cytochrome P450 enzymes.)

For series [6] the following is noted: oral administration, rats; cited from earlier work.
Series [7] in a line: Phase I metabolism kinetics (parent toxin loss) in NADPH-fortified human liver microsomes, LC-MS/MS. The series is classed as in vitro ADME. As to conditions: for microsomal CLint: human, pH 7.4, human LMs, read-out: CLint (intrinsic clearance). The protocol: as §2, §1, §3, §4
A short description of series [8]: Phase I metabolism kinetics (parent toxin loss) in NADPH-fortified rat liver microsomes, LC-MS/MS. The series is classed as in vitro ADME, Sprague–Dawley rat. As to conditions: for microsomal CLint: male, Sprague-Dawley, rat, liver microsomes, pH 7.4, rat LMs, read-out: CLint (intrinsic clearance); for Concentration decrease: rat LMs. The protocol: as §2, §1, §3, §4

Where [9] appears, read: 10 min incubation with 10 μM AME.
Where [10] appears, read: Michaelis–Menten model, ratio Vmax/Km.
[11] abbreviates: linear regression, lower concentration range.

For `COc1cc(O)c2c(=O)oc3cc(O)c(O)c(C)c3c2c1` [2-OH-AME], the “relative abundance among phase I metabolites (in words)” value is “main metabolites” in series [1] (porcine LMs incubated with AME) and “most abundant” in series [2]. Moreover, the “Relative peak area of oxidative metabolite” value (from here on “Relative peak area”) in [1] (setting [9]) worked out at 30%.
On to `COc1cc(O)c2c(=O)oc3c(O)c(O)cc(C)c3c2c1` [4-OH-AME], for which, in the series on esophageal cells, the “genotoxic effects compared with parent compound” value is “less pronounced genotoxic effects”. Also, the “Relative peak area” value in series [1] (setting [9]) is recorded as “less than 20%”. Moreover, the “relative abundance among phase I metabolites (in words)” value in series [2] is given as “most abundant”.
For the compound `Cc1cc(O)c(O)c2oc(=O)c3c(O)cc(O)cc3c12` [4-OH-AOH], in the series on esophageal cells, the “genotoxic effects compared with parent compound” value is on record as “less pronounced genotoxic effects”. In series [1] (porcine LMs incubated with AOH), the “relative abundance among phase I metabolites (in words)” value was “primary oxidative metabolite”. Besides, the “Relative peak area” value in series [1] (10 min incubation with 10 μM AOH) worked out at 50%.
For `COc1cc2c(c(O)c1O)c(=O)oc1cc(O)cc(C)c12` [8-OH-AME], the “relative abundance among phase I metabolites (in words)” value in series [2] is reported as “small amounts”; in series [3], “main metabolites”.
As for `Cc1cc(O)cc2oc(=O)c3c(O)c(O)c(O)cc3c12` [8-OH-AOH], in series [1] (porcine LMs incubated with AOH), the “relative abundance among phase I metabolites (in words)” value is “small amounts”.
Regarding `COc1cc(O)c2c(=O)oc3cc(O)cc(C)c3c2c1` [AME, alternariol 9-O-monomethyl ether], the intestinal absorption result in series [4] is “limited intestinal absorption”. For the same compound, the microsomal CLint in series [5] (setting [10]) came out at 19.5 µL/min/mg; in series [5] (setting [11]), 19 µL/min/mg; in series [7] (male, liver microsomes, Michaelis–Menten model, ratio Vmax/Km) it was 26.3 µL/min/mg; in series [7] (male, liver microsomes, linear regression, lower concentration range) it was 15.8 µL/min/mg; in [8] (setting [10]) it was 45.2 µL/min/mg; in series [8] (setting [11]), 46.2 µL/min/mg. Besides, the Concentration decrease was 16% in series [5] (1 µM toxin, 5 min); 38% in [5] (1 µM toxin, 10 min); 13% in series [5] (10 µM toxin, 5 min); 24% in series [5] (10 µM toxin, 10 min); 19% in series [5] (20 µM toxin, 5 min); 30% in [5] (20 µM toxin, 10 min). Moreover, the Concentration decrease in series [5] (50 µM toxin, 5 min) was determined as 20%; in series [5] (50 µM toxin, 10 min) it was 27%; in series [7] (human LMs, 1 µM toxin, 5 min) it was 35%; in series [7] (human LMs, 1 µM toxin, 10 min), 59%; in [7] (human LMs, 10 µM toxin, 5 min), 26%; in [7] (human LMs, 10 µM toxin, 10 min), 19%. Besides, the Concentration decrease is 8% in series [7] (human LMs, 20 µM toxin, 5 min); 26% in series [7] (human LMs, 20 µM toxin, 10 min); 2% in series [7] (human LMs, 50 µM toxin, 5 min); 47% in series [7] (human LMs, 50 µM toxin, 10 min); 28% in [8] (1 µM toxin, 5 min); 43% in series [8] (1 µM toxin, 10 min). Also, the Concentration decrease is recorded as 24% in series [8] (10 µM toxin, 5 min); 48% in [8] (10 µM toxin, 10 min); 20% in series [8] (20 µM toxin, 5 min); 48% in [8] (20 µM toxin, 10 min); 17% in [8] (50 µM toxin, 5 min); 48% in [8] (50 µM toxin, 10 min). In addition, in [6], the absorbed fraction entry is recorded as “less than 10%”. Also, the “Vmax (maximum transformation rate)” value in series [7] (human LMs, within 10 min, Michaelis–Menten model) was found to be 772 pmol/mg/min. Also, the Km in series [7] (male, liver microsomes, pH 7.4, human LMs 1 mg protein/mL, NADPH, within 10 min, Michaelis–Menten model, read-out: Km (Michaelis constant)) was 29.4 µM.
